Test system: 883617-216-R-J1-PDC complex spheroid viability
Experiment: Anticancer human tumor 883617-216-R-J1-PDC patient-derived bladder carcinoma cell line growth inhibition
Conditions: for IC50: curve of first compound; for viability, T/C: stronger effect = lower value; active = viability on the fitted dose curve at most 10% of control; inactive = the rest
How it was run: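 Multicellular complex spheroids of tumor cells with human endothelial cells (HUVEC) and mesenchymal stem cells; the LSD1 inhibitor iadademstat was combined with standard-of-care or investigational agents. Top concentration at or near clinical Cmax, half-log dilutions; final DMSO ≤0.25%.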

[1] = second compound 0.1 µM, first compound 0.00949 µM
[2] = second compound 0.1 µM, first compound 0.03 µM
[3] = second compound 0.1 µM, first compound 0.0949 µM
[4] = second compound 0.1 µM, first compound 0.3 µM
[5] = second compound 0.1 µM, first compound 0.949 µM
[6] = second compound 0.1 µM, first compound 3 µM
[7] = second compound 0.316 µM, first compound 0.00949 µM
[8] = second compound 0.316 µM, first compound 0.03 µM
[9] = second compound 0.316 µM, first compound 0.0949 µM
[10] = second compound 0.316 µM, first compound 0.3 µM
[11] = second compound 0.316 µM, first compound 0.949 µM
[12] = second compound 0.316 µM, first compound 3 µM
[13] = second compound 1 µM, first compound 0.00949 µM
[14] = second compound 1 µM, first compound 0.03 µM
[15] = second compound 1 µM, first compound 0.0949 µM
[16] = second compound 1 µM, first compound 0.3 µM
[17] = second compound 1 µM, first compound 0.949 µM
[18] = second compound 1 µM, first compound 3 µM
[19] = second compound 3.16 µM, first compound 0.00949 µM
[20] = second compound 3.16 µM, first compound 0.03 µM
[21] = second compound 3.16 µM, first compound 0.0949 µM
[22] = second compound 3.16 µM, first compound 0.3 µM
[23] = second compound 3.16 µM, first compound 0.949 µM
[24] = second compound 3.16 µM, first compound 3 µM
[25] = second compound 10 µM, first compound 0.00949 µM
[26] = second compound 10 µM, first compound 0.03 µM
[27] = second compound 10 µM, first compound 0.0949 µM
[28] = second compound 10 µM, first compound 0.3 µM
[29] = second compound 10 µM, first compound 0.949 µM
[30] = second compound 10 µM, first compound 3 µM
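Note: exposure lasted seven days after three days of spheroid growth.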
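Throughout, for viability, T/C: 100% = DMSO vehicle control luminescence.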

Cn1ncnc1C1c2n[nH]c(=O)c3cc(F)cc(c23)NC1c1ccc(F)cc1 (stereo not given) + NC1CCC(NC2CC2c2ccccc2)CC1
inactive: viability, T/C (second compound 0.1 µM, first compound 0.000316 µM) 110% | viability, T/C (second compound 0.1 µM, first compound 0.001 µM) 110% | viability, T/C (second compound 0.1 µM, first compound 0.00316 µM) 103% | viability, T/C (second compound 0.1 µM, first compound 0.01 µM) 91.6% | viability, T/C (second compound 0.1 µM, first compound 0.0316 µM) 68.5% | viability, T/C (second compound 0.1 µM, first compound 0.1 µM) 66.6% | viability, T/C (second compound 0.316 µM, first compound 0.000316 µM) 113% | viability, T/C (second compound 0.316 µM, first compound 0.001 µM) 111% | viability, T/C (second compound 0.316 µM, first compound 0.00316 µM) 97.6% | viability, T/C (second compound 0.316 µM, first compound 0.01 µM) 89.7% | viability, T/C (second compound 0.316 µM, first compound 0.0316 µM) 72.7% | viability, T/C (second compound 0.316 µM, first compound 0.1 µM) 60% | viability, T/C (second compound 1 µM, first compound 0.000316 µM) 112% | viability, T/C (second compound 1 µM, first compound 0.001 µM) 113% | viability, T/C (second compound 1 µM, first compound 0.00316 µM) 99.2% | viability, T/C (second compound 1 µM, first compound 0.01 µM) 93.9% | viability, T/C (second compound 1 µM, first compound 0.0316 µM) 67.3% | viability, T/C (second compound 1 µM, first compound 0.1 µM) 57.7% | viability, T/C (second compound 3.16 µM, first compound 0.000316 µM) 101% | viability, T/C (second compound 3.16 µM, first compound 0.001 µM) 102% | viability, T/C (second compound 3.16 µM, first compound 0.00316 µM) 99.2% | viability, T/C (second compound 3.16 µM, first compound 0.01 µM) 85.2% | viability, T/C (second compound 3.16 µM, first compound 0.0316 µM) 69.2% | viability, T/C (second compound 3.16 µM, first compound 0.1 µM) 69.7% | viability, T/C (second compound 10 µM, first compound 0.000316 µM) 107% | viability, T/C (second compound 10 µM, first compound 0.001 µM) 106% | viability, T/C (second compound 10 µM, first compound 0.00316 µM) 108% | viability, T/C (second compound 10 µM, first compound 0.01 µM) 90.6% | viability, T/C (second compound 10 µM, first compound 0.0316 µM) 72.8% | viability, T/C (second compound 10 µM, first compound 0.1 µM) 66.2%
> 0.1 µM: IC50 (second compound 0.1 µM) | IC50 (second compound 0.316 µM) | IC50 (second compound 1 µM) | IC50 (second compound 3.16 µM) | IC50 (second compound 10 µM)

NS(=O)(=O)OCC1CC(n2ccc3c(NC4CCc5ccccc54)ncnc32)CC1O (stereo not given) + NC1CCC(NC2CC2c2ccccc2)CC1
inactive: viability, T/C [1] 111% | viability, T/C [2] 121% | viability, T/C [3] 106% | viability, T/C [4] 59.8% | viability, T/C [5] 20.7% | viability, T/C [6] 15.2% | viability, T/C [7] 118% | viability, T/C [8] 113% | viability, T/C [9] 113% | viability, T/C [10] 73.8% | viability, T/C [11] 19.4% | viability, T/C [12] 15.6% | viability, T/C [13] 102% | viability, T/C [14] 116% | viability, T/C [15] 105% | viability, T/C [16] 67% | viability, T/C [17] 19.5% | viability, T/C [18] 14% | viability, T/C [19] 101% | viability, T/C [20] 106% | viability, T/C [21] 99.5% | viability, T/C [22] 73.8% | viability, T/C [23] 20.2% | viability, T/C [24] 13.7% | viability, T/C [25] 113% | viability, T/C [26] 117% | viability, T/C [27] 107% | viability, T/C [28] 58.9% | viability, T/C [29] 20.8% | viability, T/C [30] 14.6%
0.5 µM: IC50 (second compound 3.16 µM)
0.399 µM: IC50 (second compound 0.1 µM)
0.497 µM: IC50 (second compound 0.316 µM)
0.453 µM: IC50 (second compound 1 µM)
0.392 µM: IC50 (second compound 10 µM)

O=C(C=Cc1cccc(S(=O)(=O)Nc2ccccc2)c1)NO + NC1CCC(NC2CC2c2ccccc2)CC1
0.139 µM: IC50 (second compound 1 µM) | IC50 (second compound 3.16 µM)
0.131 µM: IC50 (second compound 0.316 µM)
0.124 µM: IC50 (second compound 10 µM)
0.142 µM: IC50 (second compound 0.1 µM)
inactive: viability, T/C [1] 102% | viability, T/C [2] 92.8% | viability, T/C [3] 55.3% | viability, T/C [4] 31.2% | viability, T/C [5] 20.7% | viability, T/C [7] 108% | viability, T/C [8] 98.6% | viability, T/C [9] 50% | viability, T/C [10] 31.7% | viability, T/C [11] 20.9% | viability, T/C [13] 95.7% | viability, T/C [14] 84.3% | viability, T/C [15] 57.4% | viability, T/C [16] 30.8% | viability, T/C [17] 18.9% | viability, T/C [19] 101% | viability, T/C [20] 84.2% | viability, T/C [21] 55.7% | viability, T/C [22] 34.2% | viability, T/C [23] 17.8% | viability, T/C [25] 99.5% | viability, T/C [26] 76.4% | viability, T/C [27] 55.3% | viability, T/C [28] 32.6% | viability, T/C [29] 19.6%
active: viability, T/C [6] 2.88% | viability, T/C [12] 2.02% | viability, T/C [18] 2.72% | viability, T/C [24] 2.63% | viability, T/C [30] 1.64%
